{
  "source": "patent US6740038B2",
  "about": "“Systems and methods for assessing vascular effects of a treatment” (New Health Sciences, Inc., priority 2000, dated 2004)",
  "tested_on": "cerebral vessels",
  "settings": "person after first stroke, Plavix +/- calcium channel blocker",
  "description": "A person with a history of hypertension experiences a first stroke in the left middle cerebral artery resulting in deficits in the right hand, leg, and some deficits in motor speech. These are the symptoms upon presentation in the neurological clinic. Transcranial Doppler analysis of all cerebral vessels is performed in addition to analyzing the common carotid artery and the internal carotid artery.\nThe physician considers prescription of Plavix together with a calcium channel blocker. Transcranial Doppler analysis was performed at monthly intervals. […] The physician subsequently administers a higher dose. Again, transcranial Doppler analysis is performed on all cerebral vessels.\nThe patient is then monitored on a monthly basis after the initial prescription of Plavix in order to determine whether vascular changes are occurring which necessitate alteration in the therapy.",
  "data": [
    {"smiles": "COC(=O)[C@H](c1ccccc1Cl)N1CCc2sccc2C1", "note": "[Plavix]", "values": [
      {"measurement": "auto-regulation curve", "setting": "higher dose", "value": "left-shifts toward normal"},
      {"measurement": "pulsatility index", "setting": "higher dose", "value": "decreases"},
      {"measurement": "vascular dynamics of the vessel studied", "setting": "higher dose", "value": "marked changes"},
      {"measurement": "changes in the individual cerebral vessels", "setting": "initial dose, transcranial Doppler at monthly intervals", "value": "no effect"}
    ]}
  ]
}
